Results from paper PMC5573328, “Cyclooxygenase-2 contributes to oxidopamine-mediated neuronal inflammation and injury via the prostaglandin E2 receptor EP2 subtype” (Scientific Reports, 2017).

Molecular target: T1, PGE2 receptor EP2 subtype (Mus musculus, UniProt Q62053)
T1 construct: gene Ptger2; endogenous receptor in Neuro-2a cells
Assay: TR-FRET cAMP assay in Neuro-2a cells (agonist dose-response)
Assay type: cell-based

T1 sequence (Q62053 whole entry): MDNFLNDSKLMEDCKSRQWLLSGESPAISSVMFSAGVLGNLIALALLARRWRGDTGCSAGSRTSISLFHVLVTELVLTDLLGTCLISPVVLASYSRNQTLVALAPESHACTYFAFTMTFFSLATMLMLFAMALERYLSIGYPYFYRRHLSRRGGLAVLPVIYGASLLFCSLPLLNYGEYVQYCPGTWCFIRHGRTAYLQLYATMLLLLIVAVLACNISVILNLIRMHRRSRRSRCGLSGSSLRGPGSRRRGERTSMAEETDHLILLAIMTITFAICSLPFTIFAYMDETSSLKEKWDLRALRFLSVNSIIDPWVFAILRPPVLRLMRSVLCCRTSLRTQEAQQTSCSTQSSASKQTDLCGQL

Compound: CCCC1([C@H](O)C/C=C/[C@H]2[C@H](O)CC(=O)[C@@H]2CCCCCCC(=O)OC)CCC1 [butaprost]
- EC50: 0.08 µM
